Experimental data as given in paper PMC9379584 (iScience, 2022).
“And” between values parts separate entries of the source, which are not always exact repeats. Equal values may be shown once. “Also recorded” adds a separate entry of the source. Read-outs that look alike come from different tables or passages of the source.

How the values were obtained:
[1] = target: T1, α2A-AR (Rattus norvegicus, UniProt P22909); assay type: cell-based; conditions: nanoBRET
T1 sequence (P22909 1-465): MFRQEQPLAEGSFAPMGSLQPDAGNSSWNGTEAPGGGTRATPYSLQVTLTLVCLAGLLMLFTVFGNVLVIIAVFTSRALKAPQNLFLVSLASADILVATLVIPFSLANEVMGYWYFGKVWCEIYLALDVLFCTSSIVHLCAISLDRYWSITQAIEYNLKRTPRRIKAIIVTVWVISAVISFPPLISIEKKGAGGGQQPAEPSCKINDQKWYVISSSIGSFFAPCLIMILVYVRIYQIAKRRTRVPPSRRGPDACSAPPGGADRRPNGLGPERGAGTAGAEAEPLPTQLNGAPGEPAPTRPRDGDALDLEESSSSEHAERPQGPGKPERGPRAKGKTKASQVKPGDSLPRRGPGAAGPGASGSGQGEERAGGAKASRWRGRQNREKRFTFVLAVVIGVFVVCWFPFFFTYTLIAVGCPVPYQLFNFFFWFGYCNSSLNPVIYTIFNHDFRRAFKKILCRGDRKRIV

[2] = target: T2, D2R (Homo sapiens, UniProt P14416); conditions: nanoBRET
Target sequence in this assay (P14416 whole entry): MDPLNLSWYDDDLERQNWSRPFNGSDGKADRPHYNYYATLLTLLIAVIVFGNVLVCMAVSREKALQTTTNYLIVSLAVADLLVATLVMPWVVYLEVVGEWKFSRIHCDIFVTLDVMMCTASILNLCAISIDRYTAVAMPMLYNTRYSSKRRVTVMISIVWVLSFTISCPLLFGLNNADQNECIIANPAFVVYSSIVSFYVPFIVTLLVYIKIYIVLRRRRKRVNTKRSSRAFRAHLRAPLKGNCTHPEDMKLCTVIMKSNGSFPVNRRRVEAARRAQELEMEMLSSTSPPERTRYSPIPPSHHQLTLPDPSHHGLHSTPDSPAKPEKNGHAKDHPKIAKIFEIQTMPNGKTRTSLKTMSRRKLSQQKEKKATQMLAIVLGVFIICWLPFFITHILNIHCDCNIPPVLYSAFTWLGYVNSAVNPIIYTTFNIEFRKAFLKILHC

[3] = target: T2, D2R; assay: cell-based; conditions: for EC50: nanoBRET; for Emax: HEK-293T
Target sequence in this assay (P14416 whole entry): as above

[4] = target: T2, D2R; conditions: cited from earlier work
Target sequence in this assay (P14416 whole entry): as above
Target sequence in this assay (P32121 whole entry partner): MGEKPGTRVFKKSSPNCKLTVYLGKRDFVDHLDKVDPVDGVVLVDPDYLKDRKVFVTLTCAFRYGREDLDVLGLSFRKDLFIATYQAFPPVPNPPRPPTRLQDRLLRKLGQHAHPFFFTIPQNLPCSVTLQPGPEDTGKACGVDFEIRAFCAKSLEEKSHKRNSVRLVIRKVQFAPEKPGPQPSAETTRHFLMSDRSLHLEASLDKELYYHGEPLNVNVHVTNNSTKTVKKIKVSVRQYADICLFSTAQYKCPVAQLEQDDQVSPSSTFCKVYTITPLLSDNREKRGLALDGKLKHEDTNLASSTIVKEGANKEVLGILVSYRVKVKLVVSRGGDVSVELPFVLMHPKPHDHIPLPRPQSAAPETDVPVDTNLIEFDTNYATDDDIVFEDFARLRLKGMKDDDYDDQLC

[5] = test system: mouse pancreatic islets; assay: Glucose-stimulated insulin secretion; assay type: cell-based; conditions: for IC50: Mus musculus, Pancreatic islet, 1.5 h
[6] = test system: INS-1E cells; assay: Glucose-stimulated insulin secretion; assay type: cell-based, rat
[7] = test system: α2A-AR KO INS-1E-derived cell line; assay: GSIS in α2A-AR knockout INS-1E-derived cell line; assay type: cell-based, rat
[8] = target: T2, D2R; assay: Radioligand competition binding, [3H]-N-methylspiperone, HEK-293 membranes
Target sequence in this assay (P14416 whole entry): as the sequence (P14416 whole entry) above

[9] = test system: mouse islets; assay: Glucagon secretion from mouse islets; assay type: cell-based; conditions: 25 mM glucose, 1 h
[10] = test system: human islets; assay: Glucagon secretion from human islets; assay type: cell-based; conditions: 25 mM glucose, 1 h
[11] = test system: human islets; assay: Insulin secretion from human islets; assay type: cell-based; conditions: 10 pM and 100 pM, versus vehicle
[12] = test system: INS-1E cells; assay: HTRF cAMP assay in INS-1E cells; assay type: cell-based, rat; conditions: for Emax, inhibition of cAMP production: normalized to DA's efficacy in parental INS-1E
[13] = test system: α2A-AR KO INS-1E-derived cell line; assay: HTRF cAMP assay in α2A-AR KO INS-1E-derived cells; assay type: cell-based, rat
[14] = target: T1, α2A-AR; assay: cell-based; conditions: HEK-293T
[15] = target: T1, α2A-AR; assay type: cell-based; conditions: nanoBRET; remark: listed apart in the source
[16] = target: T2, D2R; assay: cell-based
Target sequence in this assay (P14416 whole entry): as above
Target sequence in this assay (P32121 whole entry partner): as the sequence (P32121 whole entry partner) above

[17] = test system: α2A-AR; assay: α2A-AR internalization; assay type: cell-based; conditions: data not shown
[18] = target: T2, D2R
Target sequence in this assay (P14416 whole entry): as the sequence (P14416 whole entry) above

[19] = test system: β1-AR; conditions: ref Millan et al., 2002; cited from earlier work
[20] = EC50, Gαi2 recruitment to D2R, Gαi2
[21] = EC50, Gαi3 recruitment to D2R, Gαi3
[22] = EC50, GαoA recruitment to D2R, GαoA
[23] = percentage of recruitment relative to DA

For `NC[C@H](O)c1ccc(O)c(O)c1` [NE, norepinephrine], the “β-arrestin1 recruitment to α2A-AR” value [1] was “negligible recruitment”, the “β-arrestin1 recruitment to D2R” value [2] was “negligible recruitment” and the EC50 [3, 20] was 25.3 nM. It also gave an EC50 [3, 21] of 32600 nM, an EC50 [3, 22] of 3350 nM and an EC50 ([3]; EC50, GαoB recruitment to D2R, GαoB) of 139 nM. For the same compound, the “pEC50, β-arrestin2 recruitment to D2R” value [4] was 4.78 (16745.32) [3.62–5.93].

With `CC(C)C[C@H]1C(=O)N2CCC[C@H]2[C@]2(O)O[C@](NC(=O)[C@@H]3C=C4c5cccc6[nH]c(Br)c(c56)C[C@H]4N(C)C3)(C(C)C)C(=O)N12` [Bromocriptine] the IC50 ([5]; read-out: IC50, inhibition of GSIS) was 15.8 nM, the IC50 ([5]; read-out: pIC50, inhibition of GSIS (converted)) was 15.8 nM and the “effect on insulin secretion” value ([5]; mouse islets, picomolar concentrations) was “insufficient to modify insulin secretion”. The “decrease of efficacy at reducing GSIS versus bromocriptine alone” value ([6]; co-treatment with sulpiride (100 nM)) was 66.7%, the “reduction of efficacy of GSIS inhibition versus bromocriptine alone” value ([6]; co-treatment with yohimbine (100 nM)) was 66.5% and the IC50 ([6]; read-out: IC50, inhibition of GSIS, INS-1E, 20 mM glucose, 90 min) was 14 nM. For the same compound, the IC50 ([7]; read-out: IC50, inhibition of GSIS, α2A-AR KO INS-1E-derived cells) was 6.67 nM, the “reduction of efficacy of GSIS inhibition versus parental INS-1E cells” value ([7]; α2A-AR KO) was 80.6% and the Ki [8] was 43.2 nM. The “decrease in secreted glucagon” value ([9]; 10 pM) was 26.7%, the “decrease in secreted glucagon” value ([9]; 100 pM) was 29.7% and the “decrease in secreted glucagon” value ([10]; 10 pM) was 30.8%. For the same compound, the “decrease in secreted glucagon” value ([10]; 100 pM) was 36.7%, the “effect on insulin secretion” value [11] was “not significantly altered; also recorded: did not significantly alter” and the “Emax, inhibition of cAMP production” value [12] was 35.10 [33.09–38.47] % DA. The “Emax, inhibition of cAMP production” value ([12]; listed as bromocriptine) was 35.1 % DA, the IC50 ([12]; read-out: IC50, inhibition of cAMP production, forskolin 5 μM, 1 h) was 10.3 nM and the “loss of potency in decreasing cAMP by α2-AR KO” value ([13]; KO versus unmodified cells) was about 120 fold. The IC50 ([13]; read-out: IC50, inhibition of cAMP production, α2A-AR KO) was 1200 nM, the “Emax, inhibition of cAMP production” value ([13]; α2A-AR KO, normalized to DA's efficacy in parental INS-1E) was 56.28 [5.32–107.26] % DA and the Emax ([14]; read-out: Emax, Gαi1 recruitment to α2A-AR) was 15.4%. The Emax ([14]; read-out: Emax, Gαi2 recruitment to α2A-AR) was 43.8%, the Emax ([14]; read-out: Emax, Gαi3 recruitment to α2A-AR) was 12.7% and the Emax ([14]; read-out: Emax, GαoA recruitment to α2A-AR) was 43%. The Emax ([14]; read-out: Emax, GαoB recruitment to α2A-AR) was 40.3%, the Emax ([14]; read-out: Emax, Gαz recruitment to α2A-AR) was 21.2% and the “β-arrestin2 recruitment to α2A-AR” value [15] was “does not result in measurable recruitment; also recorded: Neither bromocriptine nor DA stimulation of α2A-AR caused significant β-arrestin2 receptor recruitment”. For the same compound, the EC50 [16] was 286 nM, the Emax ([16]; read-out: Emax, β-arrestin2 recruitment to D2R) was 60.9% and the “β-arrestin1 recruitment to α2A-AR” value [1] was “negligible recruitment”. The “internalization of α2A-AR following stimulation” value [17] was “no detectable internalization”, the “higher potency than DA, Gαi1 recruitment to D2R” value ([18]; EC50 ratio versus DA) was 4.5 fold and the “higher potency than NE, Gαi1 recruitment to D2R” value ([18]; EC50 ratio versus NE) was 47.2 fold. The “Emax, Gαi1 recruitment to D2R” value [18, 23] was 60.03 [46.83–73.23] %, the “Emax, GαoA recruitment to D2R” value [18, 23] was 109.13 [71.26–147.01] % and the “Emax, GαoB recruitment to D2R” value [18, 23] was 96.05 [65.07–127.03] %. For the same compound, the “Emax, Gαz recruitment to D2R” value [18, 23] was 66.51 [20.68–112.34] %, the “β-arrestin1 recruitment to D2R” value [2] was “negligible recruitment” and the “affinity for β1-AR, lower compared with D2R” value [19] was about 120 fold. The EC50 ([3]; EC50, Gαi1 recruitment to D2R, Gαi1) was 104 nM, the EC50 [3, 20] was 21.6 nM and the EC50 [3, 21] was 84.3 nM. For the same compound, the EC50 [3, 22] was 0.0767 nM and 0.08 nM, the EC50 ([3]; EC50, Gαz recruitment to D2R, Gαz) was 4.3 nM and the Emax ([3]; read-out: Emax, Gαi2 recruitment to D2R, percentage of recruitment relative to DA) was 89.3%. The Emax ([3]; read-out: Emax, GαoA recruitment to D2R, percentage of recruitment relative to DA) was 109%, the Emax ([3]; read-out: Emax, GαoB recruitment to D2R, percentage of recruitment relative to DA) was 96.1% and the Emax ([3]; read-out: Emax, Gαz recruitment to D2R, percentage of recruitment relative to DA) was 66.5%. For the same compound, the EC50 ([3]; pEC50, GαoA recruitment to D2R, GαoA) was 0.0759 nM and the EC50 ([3]; pEC50, GαoB recruitment to D2R, GαoB) was 0.269 nM.
